In patent US20240228459A1 (Boundless Bio, Inc., priority 2022, published 2024):

Tests used:
Wee1 = Wee1 (Homo sapiens, UniProt P30291); assay: Wee1 pCDK1 activity (known assay); format: cell-based
Protocol: (§1) The Wee1 pCDK1 and PLK1 activities were determined using known assays.

PLK1 = PLK1 (Homo sapiens, UniProt P53350); assay: PLK1 activity (known assay); format: biochemical
Protocol: as §1

Wee1, sequence (P30291 whole entry, species assumed): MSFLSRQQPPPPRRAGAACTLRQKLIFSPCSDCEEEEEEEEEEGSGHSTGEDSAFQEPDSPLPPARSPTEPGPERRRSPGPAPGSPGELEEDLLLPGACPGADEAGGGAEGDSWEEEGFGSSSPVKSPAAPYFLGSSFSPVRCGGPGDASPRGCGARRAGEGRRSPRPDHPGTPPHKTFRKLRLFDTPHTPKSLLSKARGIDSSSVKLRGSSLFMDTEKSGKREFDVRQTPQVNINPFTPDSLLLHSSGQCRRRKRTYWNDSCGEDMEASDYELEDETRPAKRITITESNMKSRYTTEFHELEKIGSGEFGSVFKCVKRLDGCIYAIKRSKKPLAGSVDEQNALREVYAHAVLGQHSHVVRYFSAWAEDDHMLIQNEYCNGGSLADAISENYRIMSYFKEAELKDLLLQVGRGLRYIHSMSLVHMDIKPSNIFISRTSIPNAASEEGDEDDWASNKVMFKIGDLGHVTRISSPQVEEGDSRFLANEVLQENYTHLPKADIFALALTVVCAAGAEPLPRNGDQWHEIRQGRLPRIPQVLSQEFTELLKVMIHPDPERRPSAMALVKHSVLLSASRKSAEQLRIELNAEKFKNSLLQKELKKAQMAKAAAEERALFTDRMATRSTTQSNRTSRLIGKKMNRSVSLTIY
PLK1, sequence (P53350 whole entry, species assumed): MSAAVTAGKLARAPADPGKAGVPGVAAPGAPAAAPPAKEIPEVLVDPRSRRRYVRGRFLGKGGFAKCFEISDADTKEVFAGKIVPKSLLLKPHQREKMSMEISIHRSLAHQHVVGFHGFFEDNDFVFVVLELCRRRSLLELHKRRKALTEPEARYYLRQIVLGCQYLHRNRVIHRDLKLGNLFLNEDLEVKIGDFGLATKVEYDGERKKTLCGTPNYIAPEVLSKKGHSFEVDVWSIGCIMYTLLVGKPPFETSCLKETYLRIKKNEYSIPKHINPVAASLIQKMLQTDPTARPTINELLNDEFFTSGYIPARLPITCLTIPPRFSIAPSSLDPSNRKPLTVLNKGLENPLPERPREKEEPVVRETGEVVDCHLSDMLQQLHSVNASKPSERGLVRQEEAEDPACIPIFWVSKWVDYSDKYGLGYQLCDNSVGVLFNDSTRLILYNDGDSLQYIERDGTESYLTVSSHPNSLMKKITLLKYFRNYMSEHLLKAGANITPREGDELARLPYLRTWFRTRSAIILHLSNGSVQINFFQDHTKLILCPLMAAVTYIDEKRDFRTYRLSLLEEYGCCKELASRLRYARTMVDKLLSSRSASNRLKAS

| IC50 (Wee1) | IC50 (PLK1) | Structure (SMILES) |
| --- | --- | --- |
| 100 to 250 nM | ≤ 100 nM | CCC1(O)CCc2ccc(Nc3nc(Nc4ccc(N5C[C@@H](C)N[C@@H](C)C5)cc4)ncc3C#N)nc21 (mixture of isomers) [Example 32, 4-[(7-ethyl-7-hydroxy-5,6-dihydrocyclopenta[b]pyridin-2-yl)amino]-2-[4-[rac-(3R,5S)-3,5-dimethylpiperazin-1-yl]anilino]pyrimidine-5-carbonitrile] |
| 100 to 250 nM | ≤ 100 nM | CCC1(O)CCc2ccc(Nc3nc(Nc4ccc(N5C[C@@H](C)N(C)[C@@H](C)C5)cc4)ncc3C#N)nc21 (mixture of isomers) [Example 53, 4-[(7-ethyl-7-hydroxy-5,6-dihydrocyclopenta[b]pyridin-2-yl)amino]-2-[4-[rac-(3R,5S)-3,4,5-trimethylpiperazin-1-yl]anilino]pyrimidine-5-carbonitrile] |
| 500 to 1000 nM | 500 to 1000 nM | C[C@H]1CN(C)CCN1c1ccc(Nc2ncc(C#N)c(Nc3ccc4c(n3)C(C)(O)CC4)n2)cc1 (mixture of isomers) [Example 60, 4-[(7-hydroxy-7-methyl-5,6-dihydrocyclopenta[b]pyridin-2-yl)amino]-2-[4-[rac-(2S)-2,4-dimethylpiperazin-1-yl]anilino]pyrimidine-5-carbonitrile] |
| > 1000 nM | > 1000 nM | CCC1(O)CCc2ccc(Nc3nc(Nc4ccc(N5C6CCC5CN(C)C6)cc4)ncc3C#N)nc21 (single isomer, unassigned) [Example 37] |
| 250 to 500 nM | 250 to 500 nM | CCC1(O)CCc2ccc(Nc3nc(Nc4ccc(N5C6CCC5CN(C)C6)cc4)ncc3C#N)nc21 (single isomer, unassigned) [Example 38] |
| 100 to 250 nM | ≤ 100 nM | CCC1(O)CCCc2ccc(Nc3nc(Nc4ccc(N5CCN(C)CC5)cc4)ncc3C#N)nc21 (stereo not shown) [Example 1, 4-[(8-ethyl-8-hydroxy-6,7-dihydro-5H-quinolin-2-yl)amino]-2-[4-(4-methylpiperazin-1-yl)anilino]pyrimidine-5-carbonitrile] |
| ≤ 100 nM | ≤ 100 nM | CCCC1(O)CCc2ccc(Nc3nc(Nc4ccc(N5CCN(C)CC5)cc4)ncc3C#N)nc21 (stereo not shown) [Example 2, 4-[(7-hydroxy-7-propyl-5,6-dihydrocyclopenta[b]pyridin-2-yl)amino]-2-[4-(4-methylpiperazin-1-yl)anilino]pyrimidine-5-carbonitrile] |
| 250 to 500 nM | ≤ 100 nM | COC1(C)CCc2ccc(Nc3nc(Nc4ccc(N5CCN(C)CC5)cc4)ncc3C#N)nc21 (stereo not shown) [Example 4, 4-[(7-methoxy-7-methyl-5,6-dihydrocyclopenta[b]pyridin-2-yl)amino]-2-[4-(4-methylpiperazin-1-yl)anilino]pyrimidine-5-carbonitrile] |
| 500 to 1000 nM |  | CCN1CCCc2ccc(Nc3nc(Nc4ccc(N5CCN(C)CC5)cc4)ncc3C#N)nc21 [Example 6, 4-[(8-ethyl-6,7-dihydro-5H-1,8-naphthyridin-2-yl)amino]-2-[4-(4-methylpiperazin-1-yl)anilino]pyrimidine-5-carbonitrile] |
| 100 to 250 nM | ≤ 100 nM | CN1CCN(c2ccc(Nc3ncc(C#N)c(Nc4ccc5c(n4)C(C)(O)CC5)n3)cc2)CC1 (stereo not shown) [Example 8, 4-[(7-hydroxy-7-methyl-5,6-dihydrocyclopenta[b]pyridin-2-yl)amino]-2-[4-(4-methylpiperazin-1-yl)anilino]pyrimidine-5-carbonitrile] |
| > 1000 nM | ≤ 100 nM | CCC1(O)CCc2ccc(Nc3nc(Nc4ccc(N5CCN(C)CC5)nc4)ncc3C#N)nc21 (stereo not shown) [Example 14, 4-[(7-ethyl-7-hydroxy-5,6-dihydrocyclopenta[b]pyridin-2-yl)amino]-2-[[6-(4-methylpiperazin-1-yl)-3-pyridyl]amino]pyrimidine-5-carbonitrile] |
| 250 to 500 nM | ≤ 100 nM | CCC1(O)CCc2ccc(Nc3nc(Nc4ccc(N5CCN(C)CC5)cc4)ncc3C#N)nc21 (stereo not shown) [Example 15, 4-[(7-ethyl-7-hydroxy-5,6-dihydrocyclopenta[b]pyridin-2-yl)amino]-2-[4-(4-methylpiperazin-1-yl)anilino]pyrimidine-5-carbonitrile] |
| 100 to 250 nM | ≤ 100 nM | CCC1(O)CCc2ccc(Nc3nc(Nc4ccc(N5CCN(C)CC5)c(C)c4)ncc3C#N)nc21 (stereo not shown) [Example 16, 4-[(7-ethyl-7-hydroxy-5,6-dihydrocyclopenta[b]pyridin-2-yl)amino]-2-[3-methyl-4-(4-methylpiperazin-1-yl)anilino]pyrimidine-5-carbonitrile] |
| 500 to 1000 nM | ≤ 100 nM | CCC1(O)CCc2ccc(Nc3nc(Nc4ccc(N5CCN(C6CC6)CC5)cc4)ncc3C#N)nc21 (stereo not shown) [Example 23, 2-[4-(4-cyclopropylpiperazin-1-yl)anilino]-4-[(7-ethyl-7-hydroxy-5,6-dihydrocyclopenta[b]pyridin-2-yl)amino]pyrimidine-5-carbonitrile] |

More lines, now with the values behind:

| Structure (SMILES) | IC50 (Wee1) | IC50 (PLK1) |
| --- | --- | --- |
| C[C@@H]1CN(C)CCN1c1ccc(Nc2ncc(C#N)c(Nc3cccc(N4CCOC4=O)n3)n2)cc1 (racemic) [Example 10, 4-[[6-(2-oxooxazolidin-3-yl)-2-pyridyl]amino]-2-[4-[rac-(2R)-2,4-dimethylpiperazin-1-yl]anilino]pyrimidine-5-carbonitrile] | 100 to 250 nM | > 1000 nM |
| CCC1(O)CCc2ccc(Nc3nc(Nc4ccc(C5CCN(C)CC5)c(C)c4)ncc3C#N)nc21 (single isomer, unassigned) [Example 21] | ≤ 100 nM | ≤ 100 nM |
| CCC1(O)CCc2ccc(Nc3nc(Nc4ccc(C5CCN(C)CC5)c(C)c4)ncc3C#N)nc21 (single isomer, unassigned) [Example 22] | 250 to 500 nM | 100 to 250 nM |
| CCC1(O)CCc2ccc(Nc3nc(Nc4ccc5c(c4)CCN(C)C5(C)C)ncc3C#N)nc21 (single isomer, unassigned) [Example 27] | ≤ 100 nM | > 1000 nM |
| CCC1(O)CCc2ccc(Nc3nc(Nc4ccc5c(c4)CCN(C)C5(C)C)ncc3C#N)nc21 (single isomer, unassigned) [Example 28] | 250 to 500 nM | > 1000 nM |
| CN1CCN(c2ccc(Nc3ncc(C#N)c(Nc4cccc(-n5ccccc5=O)n4)n3)cc2)CC1 [Example 3, 2-[4-(4-methylpiperazin-1-yl)anilino]-4-[[6-(2-oxo-1-pyridyl)-2-pyridyl]amino]pyrimidine-5-carbonitrile] | 500 to 1000 nM |  |
| CN1CCN(c2ccc(Nc3ncc(C#N)c(Nc4cccc(N5CCCC5=O)n4)n3)cc2)CC1 [Example 5, 2-[4-(4-methylpiperazin-1-yl)anilino]-4-[[6-(2-oxopyrrolidin-1-yl)-2-pyridyl]amino]pyrimidine-5-carbonitrile] | 100 to 250 nM | 250 to 500 nM |
| CN1CCN(c2ccc(Nc3ncc(C#N)c(Nc4cccc(N5CCCC5)n4)n3)cc2)CC1 [Example 7, 2-[4-(4-methylpiperazin-1-yl)anilino]-4-[(6-pyrrolidin-1-yl-2-pyridyl)amino]pyrimidine-5-carbonitrile] | 100 to 250 nM | ≤ 100 nM |
| C[C@H]1CN(C)CCN1c1ccc(Nc2ncc(C#N)c(Nc3cccc(N4CCOC4=O)n3)n2)cc1 [Example 9, 4-[[6-(2-oxooxazolidin-3-yl)-2-pyridyl]amino]-2-[4-[(2S)-2,4-dimethylpiperazin-1-yl]anilino]pyrimidine-5-carbonitrile] | 100 to 250 nM | > 1000 nM |
| Cc1cc(Nc2ncc(C#N)c(Nc3cccc(N4CCOC4=O)n3)n2)ccc1C1CCN(C)CC1 [Example 11, 2-[3-methyl-4-(1-methyl-4-piperidyl)anilino]-4-[[6-(2-oxooxazolidin-3-yl)-2-pyridyl]amino]pyrimidine-5-carbonitrile] | 100 to 250 nM |  |
| CN1CCc2cc(Nc3ncc(C#N)c(Nc4cccc(N5CCOC5=O)n4)n3)ccc2C1 [Example 12, 2-[(2-methyl-3,4-dihydro-1H-isoquinolin-6-yl)amino]-4-[[6-(2-oxooxazolidin-3-yl)-2-pyridyl]amino]pyrimidine-5-carbonitrile] | ≤ 100 nM | > 1000 nM |
| CN1CCc2cc(Nc3ncc(C#N)c(Nc4cccc(N5CCOC5=O)n4)n3)cc(Cl)c2C1 [Example 13, 2-[(8-chloro-2-methyl-3,4-dihydro-1H-isoquinolin-6-yl)amino]-4-[[6-(2-oxooxazolidin-3-yl)-2-pyridyl]amino]pyrimidine-5-carbonitrile] | ≤ 100 nM | > 1000 nM |
| CCC1(O)CCc2ccc(Nc3nc(Nc4ccc(N5CCNCC5)c(C)c4)ncc3C#N)nc21 (stereo not shown) [Example 17, 4-[(7-ethyl-7-hydroxy-5,6-dihydrocyclopenta[b]pyridin-2-yl)amino]-2-(3-methyl-4-piperazin-1-yl-anilino)pyrimidine-5-carbonitrile] | ≤ 100 nM | ≤ 100 nM |
| CCC1(O)CCc2ccc(Nc3nc(Nc4ccc(C5CCNCC5)c(C)c4)ncc3C#N)nc21 (stereo not shown) [Example 18, 4-[(7-ethyl-7-hydroxy-5,6-dihydrocyclopenta[b]pyridin-2-yl)amino]-2-[3-methyl-4-(4-piperidyl)anilino]pyrimidine-5-carbonitrile] | 250 to 500 nM | ≤ 100 nM |
| CCC1(O)CCc2ccc(Nc3nc(Nc4ccc(C5CCN(CCO)CC5)c(C)c4)ncc3C#N)nc21 (stereo not shown) [Example 19, 4-[(7-ethyl-7-hydroxy-5,6-dihydrocyclopenta[b]pyridin-2-yl)amino]-2-[4-[1-(2-hydroxyethyl)-4-piperidyl]-3-methyl-anilino]pyrimidine-5-carbonitrile] | 250 to 500 nM | ≤ 100 nM |
| CCC1(O)CCc2ccc(Nc3nc(Nc4ccc(C5CCN(C)CC5)c(C)c4)ncc3C#N)nc21 (stereo not shown) [Example 20, 4-[(7-ethyl-7-hydroxy-5,6-dihydrocyclopenta[b]pyridin-2-yl)amino]-2-[3-methyl-4-(1-methyl-4-piperidyl)anilino]pyrimidine-5-carbonitrile] | ≤ 100 nM | 100 to 250 nM |
| Cc1cc(Nc2ncc(C#N)c(Nc3cccc(N4CCCC4=O)n3)n2)cc2c1CNCC2 [Example 77, 2-[(8-methyl-1,2,3,4-tetrahydroisoquinolin-6-yl)amino]-4-[[6-(2-oxopyrrolidin-1-yl)-2-pyridyl]amino]pyrimidine-5-carbonitrile] | 500 to 1000 nM |  |
